From ChEMBL document CHEMBL1201862, “PubChem BioAssay data set” (2004)
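How tested: cells in 96-well plates exposed to compound for 48 hours at five concentrations. GI50 is the concentration that inhibits growth by half.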 Calls of active or inactive are those of the source. Cut-off read from the data, not from the text of the source: active = GI50 up to about 1.1 µM and inactive = higher.

Assays:
Assay in all cases: NCI tumour cell line growth inhibition, 48 h
OVCAR-4 = test system: OVCAR-4
SN12C = test system: SN12C
CAKI-1 = test system: CAKI-1
K562 = test system: K562
UO-31 = test system: UO-31
UACC-62 = test system: UACC-62
HOP-62 = test system: HOP-62
SK-MEL-5 = test system: SK-MEL-5
SK-MEL-2 = test system: SK-MEL-2
NCI-H226 = test system: NCI-H226
SF-539 = test system: SF-539
A498 = test system: A498
HCT-116 = test system: HCT-116
SW-620 = test system: SW-620
ACHN = test system: ACHN
COLO 205 = test system: COLO 205
DMS-114 = test system: DMS-114
Malme-3M = test system: Malme-3M
U-251 = test system: U-251
SK-MEL-28 = test system: SK-MEL-28
HL-60 = test system: HL-60
TK-10 = test system: TK-10
UACC-257 = test system: UACC-257
HOP-92 = test system: HOP-92
NCI-H460 = test system: NCI-H460
RPMI-8226 = test system: RPMI-8226
KM12 = test system: KM12
KM-20L2 = test system: KM-20L2
DMS-273 = test system: DMS-273
SF-268 = test system: SF-268
LOX IMVI = test system: LOX IMVI
EKVX = test system: EKVX
M14 = test system: M14
OVCAR-3 = test system: OVCAR-3
OVCAR-8 = test system: OVCAR-8
A549 = test system: A549
M19-MEL = test system: M19-MEL
HCC 2998 = test system: HCC 2998
SNB-75 = test system: SNB-75
CCRF-CEM = test system: CCRF-CEM
MOLT-4 = test system: MOLT-4
NCI-H522 = test system: NCI-H522
SNB-78 = test system: SNB-78
SR = test system: SR
OVCAR-5 = test system: OVCAR-5
DLD-1 = test system: DLD-1
NCI-H23 = test system: NCI-H23
HCT-15 = test system: HCT-15
XF498 = test system: XF498
786-0 = test system: 786-0
SNB-19 = test system: SNB-19
LXFL 529 = test system: LXFL 529
SF-295 = test system: SF-295
HOP-18 = test system: HOP-18
SK-OV-3 = test system: SK-OV-3
HT-29 = test system: HT-29
IGROV-1 = test system: IGROV-1

`CC(C)OP(=O)(OC(C)C)/C(Cl)=N/Nc1ccc([N+](=O)[O-])cc1` was tested, and the GI50 (OVCAR-4) was > 100 µM (inactive), the GI50 (SN12C) was > 100 µM (inactive) and the GI50 (CAKI-1) was 97.3 µM (inactive). For the same molecule, the GI50 (K562) was 38.7 µM (inactive), the GI50 (UO-31) was > 100 µM (inactive) and the GI50 (UACC-62) was 44.8 µM (inactive). For the same molecule, the GI50 (HOP-62) was > 100 µM (inactive), the GI50 (SK-MEL-5) was > 100 µM (inactive) and the GI50 (SK-MEL-2) was > 100 µM (inactive). The GI50 (NCI-H226) was 0.778 µM (active), the GI50 (SF-539) was > 100 µM (inactive) and the GI50 (A498) was 24 µM (inactive). The GI50 (HCT-116) was > 100 µM (inactive), the GI50 (SW-620) was > 100 µM (inactive) and the GI50 (ACHN) was > 100 µM (inactive). For the same molecule, the GI50 (COLO 205) was > 100 µM (inactive), the GI50 (DMS-114) was 81.8 µM (inactive) and the GI50 (Malme-3M) was > 100 µM (inactive). For the same molecule, the GI50 (U-251) was > 100 µM (inactive), the GI50 (SK-MEL-28) was > 100 µM (inactive) and the GI50 (HL-60) was 43.7 µM (inactive). For the same molecule, the GI50 (TK-10) was > 100 µM (inactive), the GI50 (UACC-257) was > 100 µM (inactive) and the GI50 (HOP-92) was 44.9 µM (inactive). The GI50 (NCI-H460) was > 100 µM (inactive), the GI50 (RPMI-8226) was > 100 µM (inactive) and the GI50 (KM12) was > 100 µM (inactive). The GI50 (KM-20L2) was 50.8 µM (inactive), the GI50 (DMS-273) was > 100 µM (inactive) and the GI50 (SF-268) was > 100 µM (inactive). For the same molecule, the GI50 (LOX IMVI) was 44.9 µM (inactive), the GI50 (EKVX) was > 100 µM (inactive) and the GI50 (M14) was > 100 µM (inactive). For the same molecule, the GI50 (OVCAR-3) was > 100 µM (inactive), the GI50 (OVCAR-8) was > 100 µM (inactive) and the GI50 (A549) was > 100 µM (inactive). For the same molecule, the GI50 (M19-MEL) was > 100 µM (inactive), the GI50 (HCC 2998) was > 100 µM (inactive) and the GI50 (SNB-75) was > 100 µM (inactive). The GI50 (CCRF-CEM) was 59 µM (inactive), the GI50 (MOLT-4) was 53.6 µM (inactive) and the GI50 (NCI-H522) was > 100 µM (inactive). The GI50 (SNB-78) was 80.4 µM (inactive), the GI50 (SR) was 92.3 µM (inactive) and the GI50 (OVCAR-5) was > 100 µM (inactive). For the same molecule, the GI50 (DLD-1) was > 100 µM (inactive), the GI50 (NCI-H23) was > 100 µM (inactive) and the GI50 (HCT-15) was > 100 µM. The GI50 (XF498) was > 100 µM (inactive), the GI50 (786-0) was > 100 µM (inactive) and the GI50 (SNB-19) was > 100 µM (inactive). For the same molecule, the GI50 (LXFL 529) was 34.7 µM (inactive).
With `Cc1cc(C(=O)N2CCN(Cc3ccccc3)CC2)c(C)o1` the GI50 (OVCAR-4) was > 100 µM (inactive), the GI50 (SN12C) was > 100 µM (inactive) and the GI50 (CAKI-1) was > 100 µM (inactive). The GI50 (K562) was > 100 µM (inactive), the GI50 (UO-31) was > 100 µM (inactive) and the GI50 (UACC-62) was > 100 µM (inactive). The GI50 (HOP-62) was > 100 µM (inactive), the GI50 (SK-MEL-5) was > 100 µM (inactive) and the GI50 (SF-295) was > 100 µM (inactive). For the same molecule, the GI50 (SF-539) was > 100 µM (inactive), the GI50 (A498) was > 100 µM (inactive) and the GI50 (HOP-18) was > 100 µM (inactive). For the same molecule, the GI50 (HCT-116) was > 100 µM (inactive), the GI50 (SW-620) was > 100 µM (inactive) and the GI50 (ACHN) was > 100 µM (inactive). The GI50 (DMS-114) was > 100 µM (inactive), the GI50 (U-251) was > 100 µM (inactive) and the GI50 (SK-MEL-28) was > 100 µM (inactive). For the same molecule, the GI50 (HL-60) was 25.4 µM (inactive), the GI50 (TK-10) was > 100 µM (inactive) and the GI50 (UACC-257) was > 100 µM (inactive). The GI50 (HOP-92) was > 100 µM (inactive), the GI50 (NCI-H460) was > 100 µM (inactive) and the GI50 (RPMI-8226) was > 100 µM (inactive). For the same molecule, the GI50 (KM12) was > 100 µM (inactive), the GI50 (KM-20L2) was > 100 µM (inactive) and the GI50 (SF-268) was > 100 µM (inactive). For the same molecule, the GI50 (LOX IMVI) was > 100 µM (inactive), the GI50 (EKVX) was > 100 µM (inactive) and the GI50 (M14) was > 100 µM (inactive). The GI50 (OVCAR-3) was > 100 µM (inactive), the GI50 (OVCAR-8) was > 100 µM (inactive) and the GI50 (A549) was > 100 µM (inactive). The GI50 (M19-MEL) was > 100 µM (inactive), the GI50 (HCC 2998) was > 100 µM (inactive) and the GI50 (SNB-75) was > 100 µM (inactive). For the same molecule, the GI50 (CCRF-CEM) was > 100 µM (inactive), the GI50 (MOLT-4) was > 100 µM (inactive) and the GI50 (NCI-H522) was > 100 µM (inactive). The GI50 (SNB-78) was > 100 µM (inactive), the GI50 (SR) was > 100 µM (inactive) and the GI50 (OVCAR-5) was > 100 µM (inactive). For the same molecule, the GI50 (DLD-1) was > 100 µM (inactive), the GI50 (SK-OV-3) was > 100 µM (inactive) and the GI50 (NCI-H23) was > 100 µM (inactive). The GI50 (HT-29) was > 100 µM (inactive), the GI50 (HCT-15) was > 100 µM and the GI50 (XF498) was > 100 µM (inactive). The GI50 (786-0) was > 100 µM (inactive), the GI50 (SNB-19) was > 100 µM (inactive) and the GI50 (IGROV-1) was > 100 µM (inactive). For the same molecule, the GI50 (LXFL 529) was > 100 µM (inactive).
